Measured values published in patent US4214095A, “Chlorobenzyl phenoxy alkoxylates” (Siegfried Aktiengesellschaft, priority 1979, dated 1980).
Counter-ions that a name gives are not always drawn. Like-named read-outs stand apart in the source and are kept apart here.

Columns and labels:
[1] = system: cholesterol level in the blood serum; test: Cholesterol-lowering effectiveness (E1 D25) in rats; type: in vivo, male Whistar rats; conditions: for ED25: Rattus norvegicus, male Whistar rats, oral, daily, two weeks (5 + 5 days), vs control, read-out: E1 D25 (dose causing 25% reduction of average serum cholesterol level); for cholesterol lowering effectiveness (in words): conclusion from Table I
Procedure: (§1) The compounds of Examples I to VIII were tested to evaluate their pharmacological effectiveness. Specifically, their toxicity (LD50), cholesterol-lowering effectiveness (E1 D25) and their liver weight increasing activity (E2 D25) were tested on animals according to standard methods.
(B) The effective dose E1 D25 is the amount of test substance in milligram per kilogram body weight of the test animals (male Whistar rats, 100-200 g body weight, eight to ten animals per dosis) that causes a 25% by weight reduction of the average cholesterol level in the blood serum of test animals that had received the test substance, compared with the cholesterol level in the blood serum of the control group. The test substances were administered orally via a probe in the manner set forth above for the LD50 toxicity, i.e. as suspension in aqueous Gum Arabic. Each test animal was administered daily with 10 ml of the suspension per kilogram body weight. The animals of the control group were administered daily with each 10 ml of the aqueous Gum Arabic per kilogram of body weight without the test substance. The daily dose was administered for 5 subsequent days, resumed after a two-day week-end interval and continued for 5 additional days. After a total test period of two weeks, both the test and the control animals were sacrificed and the blood serum was recovered from the bodies for analysis.
Cholesterol analysis of the serum recovered was carried out according to the standard method of M. Richterich (cf. Monography by M. Richterich, "Klinische Chemie," Verlag Karger, Basel/New York, 1965, p. 232) and the results were evaluated by means of a cholesterol level/dose diagram. The E1 D25 values were taken from the diagram thus obtained. Lower E1 D25 values indicate higher activity, and vice versa.

[2] = Acute oral toxicity (LD50) in mice; type: in vivo; conditions: mouse, in vivo
Procedure: as §1
(§2) At least three different doses were tested for each LD50 value given and 10 animals were used for testing of each dose; five test animals were kept in one standard "Macrolon" cage. The test substance was administered as a suspension in aqueous (3-5% by weight) Gum Arabic via a probe into the stomach in quantities of 10 ml of the suspension per kilogram body weight. As is conventional, LD50 is that dose of the test substance in mg/kg body weight which causes death of 50% of the test animals within the observation period. Higher LD50 values indicate lower toxicity and vice versa.

[3] = system: liver weight/body weight ratio (relative liver weight); parameters: species or system male Whistar rats; conditions: rat, in vivo
Procedure: as §1
(C) The effective dose E2 D25 is the amount of test substance in milligram per kilogram body weight of the test animals (male Whistar rats, 100-200 g body weight, eight to ten animals per dose) that causes a 25% increase of the liver weight/body weight ratio (relative liver weight) of test animals that had received that test substance, compared with the liver weight/body weight ratio of the control group. Administration was effected substantially in the manner described above for E1 D25. The relative liver weight was determined from the bodies of the sacrificed animals and the control animals. The actual increase of the relative liver weight was evaluated graphically and the E2 D25 was obtained by interpolation from the graph.

mice [4] = test: Acute oral toxicity (LD50) in mice; type: in vivo; conditions: conclusion from Table I
Procedure: as §1, §2

mice [5] = conditions: background section; cited from earlier work
[6] = mice, single oral dose, 7 days observation or longer, read-out: LD50

Compound	ED25 [1]	LD50 at 168 h ([2]; po, read-out: LD50)	cholesterol lowering effectiveness (in words) [1]	further results
CCCC(C)(Oc1ccccc1Cc1ccc(Cl)cc1)C(=O)OCC (racemic) [Example II, ethyl D,L-2-methyl-2-[o-(p'-chlorobenzyl)-phenoxy]-valerate]	~40 mg/kg	> 10000 mg/kg	–	–
CC(C)(Oc1ccccc1Cc1ccc(Cl)cc1)C(=O)OCc1cccnc1 [Example V, 2-methyl-2-[o-(p'-chlorobenzyl)-phenoxy]-propionic acid-(3-oxymethyl-pyridine)-ester hydrochloride]	–	–	–	LD50 at 168 h [2, 6]: > 3000 mg/kg
CCOC(=O)C(C)(CC)Oc1ccccc1Cc1ccc(Cl)cc1 (racemic) [Example I, ethyl D,L-2-methyl-2-[o-(p'-chlorobenzyl)-phenoxy]butyrate]	~10 mg/kg	> 10000 mg/kg	high cholesterol lowering effectiveness	liver enlargement activities (in words) [3]: low or very low liver enlargement activities; toxicity (in words) (mice [4]): low toxicity
CCOC(=O)C(C)(C)Oc1ccc(Cl)cc1 [Substance B, Ethyl p-chlorophenoxyisobutyrate, reference compound]	151 mg/kg	–	–	toxicity (in words) (mice [5]): relatively high toxicity; LD50 at 168 h [2, 6]: 2350 mg/kg
CCOC(=O)C(C)Oc1ccccc1Cc1ccc(Cl)cc1 (stereo not drawn) [Example VII]	100 mg/kg	> 3000 mg/kg	reduced cholesterol lowering effect	–
CCOC(=O)COc1ccccc1Cc1ccc(Cl)cc1 [Example VI]	300 mg/kg	3000 mg/kg	reduced cholesterol lowering effect	–
CCOC(=O)C(C)(C)Oc1ccccc1Cc1ccc(Cl)cc1 [Example IV, ethyl 2-methyl-2-[o-(p'-chlorobenzyl)-phenoxy]propionate]	~90 mg/kg	> 10000 mg/kg	–	–
CCC(C)(Oc1ccccc1Cc1ccc(Cl)cc1)C(=O)OCc1cccnc1 (racemic) [Example III, D,L-2-methyl-2-[o-(p'-chlorobenzyl)-phenoxy]-butyric acid-(3-oxymethyl-pyridine)-ester hydrochloride]	~10 mg/kg	> 3000 mg/kg	–	–
CCOC(=O)C(C)(CC)Oc1ccc(Cc2ccc(Cl)cc2)cc1 (stereo not drawn) [Substance A, ethyl ester of 2methyl-2-4(4chlorobenzyl)-phenoxy-butyric acid, reference compound]	12.1 mg/kg	–	–	LD50 at 168 h ([2]; po): 8000 mg/kg
CCOC(=O)C(C)(CC)Oc1cccc(Cc2ccc(Cl)cc2)c1 (stereo not drawn) [Example VIII]	40 mg/kg	–	–	–
